Source: patent US12297175B2, “Physics-driven discovery of novel small therapeutic compounds for use as a BCL-2 inhibitor” (BAHCESEHIR UNIVERSITESI, priority 2020, dated 2025)

System: HCT-116 cell lines
Experiment: MTT cell proliferation assay
Assay type: cell-based
Experimental: For cell culture experiments various cancer cell lines, HCT-116 colon cancer, U87-MG glial tumor, MCF7 breast cancer cell lines were used. Cells were seeded with high glucose DMEM medium (Biosera) supplemented with 10% FBS (Gibco) and 1× penicillin/streptomycin (Multicell). Twenty-four hours prior to molecule treatment, 10,000 cells were seeded into each well of 24-well cell culture plates. Molecules were used by preparing 4 mM stock solution in DMSO (Amresco). For molecule treatment, molecule stock solutions were diluted in DMEM with 10% FBS and added onto cells in each corresponding well. Final concentration of vehicle DMSO was 2% at maximum. […] We calculated the number of cells to be seeded to make sure that none of the cells reaches more than 60% confluency during the treatment period, as higher plate confluency levels would slow down cell proliferation independently from the molecule treatment.
Values of half-maximal inhibitory concentration were (IC50) determined by MTT cell proliferation assays. […] 570 nm absorbance values were recorded and IC50 values were calculated by dose response—inhibition curves and nonlinear regression analysis on GraphPad Prism 8 software. […] Following the initial incubation day, molecules were added and after incubation with MTT at 37° C. for 4 hours, formazan was solubilized with DMSO (Sigma-Aldrich, St. Louis, USA) and absorbance was measured at 570 nm. […]

- IC50 (Homo sapiens, 72 h, HCT-116 colon cancer cells, single treatment, three days results, 570 nm absorbance, read-out: IC50 value (half-maximal inhibitory concentration)): 24 µM
SMILES: Cc1ccc(C2CC(=O)N=C(SCC(=O)Nc3ccc(Br)cc3Cl)C2C#N)cc1 (centres unmarked) [compound of formula I]
- cell proliferation compared with vehicle group (FIG. 1) (HCT-116 cells, cell viability over time vs vehicle (max 2% DMSO)): reduced proliferation and apoptotic cell structures
